Source: PubChem BioAssay (NCI)
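Protocol summary: plate cells (96-well), add compound at 5 concentrations, incubate 48 h, interpolate endpoints linearly. GI50 marks 50% less growth. At the TGI there is no net growth.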

Tests used:
Experiment in all cases: DTP human tumour cell line panel, 48 h
SNB-19 CNS = test system: SNB-19 CNS
SK-MEL-28 melanoma = test system: SK-MEL-28 melanoma
SK-MEL-2 melanoma = test system: SK-MEL-2 melanoma
A498 renal = test system: A498 renal
NCI-H23 lung = test system: NCI-H23 lung
KM12 colon = test system: KM12 colon
RXF 393 renal = test system: RXF 393 renal
NCI-H460 lung = test system: NCI-H460 lung
HCT-116 colon = test system: HCT-116 colon
MALME-3M melanoma = test system: MALME-3M melanoma

SMILES | GI50 (SNB-19 CNS) | TGI (SNB-19 CNS) | GI50 (SK-MEL-28 melanoma) | TGI (SK-MEL-28 melanoma) | GI50 (SK-MEL-2 melanoma) | TGI (SK-MEL-2 melanoma) | GI50 (A498 renal) | TGI (A498 renal) | GI50 (NCI-H23 lung) | TGI (NCI-H23 lung) | GI50 (KM12 colon) | TGI (KM12 colon) | GI50 (RXF 393 renal) | TGI (RXF 393 renal) | GI50 (NCI-H460 lung) | TGI (NCI-H460 lung) | GI50 (HCT-116 colon) | TGI (HCT-116 colon) | TGI (MALME-3M melanoma) | GI50 (MALME-3M melanoma)
C/C(=N\O)c1cccc(Nc2cc(-n3ccnn3)c3ccccc3n2)c1 | 45.6 µM | > 100 µM | 0.444 µM | 30.2 µM | 15.3 µM | 29.5 µM | 15.2 µM | 38.3 µM | 21.3 µM | 48.6 µM | 15.1 µM | 33.3 µM | 13.6 µM | 39.8 µM | 48.9 µM | > 100 µM | 14.1 µM | 27.1 µM | – | –
Cn1nc(-c2ccccc2)c(C(=O)/C=C/c2ccc(F)cc2)c(N2CCCCC2)c1=O | – | 55.4 µM | – | 16.2 µM | – | – | – | – | – | – | – | – | – | 9.86 µM | – | 18.1 µM | – | 11.5 µM | – | –
OC1c2ccccc2C2(O)C1C(c1ccccc1)C(c1ccccc1)C2(O)c1ccccc1 (stereo unspecified) | – | > 100 µM | – | 25.7 µM | – | 23.3 µM | – | – | – | 41.7 µM | – | 25.3 µM | – | 76.2 µM | – | 19.5 µM | – | – | 26.9 µM | –
COc1ccc(C2SCC(=O)N2NC(=O)C(O)c2ccccc2)cc1OC (stereo unspecified) | > 100 µM | > 100 µM | > 100 µM | > 100 µM | > 100 µM | > 100 µM | > 100 µM | > 100 µM | – | – | > 100 µM | > 100 µM | > 100 µM | > 100 µM | > 100 µM | > 100 µM | > 100 µM | > 100 µM | – | –
Cc1ccc(S(=O)(=O)NCCNC2=CC(=O)c3nc4ccccc4c4ccnc2c34)cc1 | 13.8 µM | 33.9 µM | 26.7 µM | 57.9 µM | 33 µM | > 100 µM | 24.1 µM | 53.1 µM | 20.1 µM | 49.5 µM | 16.1 µM | 34.6 µM | – | – | 15.7 µM | 56.5 µM | 26.9 µM | > 100 µM | 54.5 µM | 20.5 µM
O=C([CH-]C(=O)c1ccccc1)c1ccccc1.O=C([CH-]C(=O)c1ccccc1)c1ccccc1.O=C([CH-]C(=O)c1ccccc1)c1ccccc1.[Nd+3].[OH3+] | 4.52 µM | 29.1 µM | 7.74 µM | 30.4 µM | 3.97 µM | 15.6 µM | 9 µM | 27.3 µM | 2.97 µM | 13.3 µM | 6.02 µM | 37.9 µM | – | – | 3.41 µM | > 100 µM | 4.92 µM | 19.1 µM | 36.4 µM | 9.41 µM
O=C(Nc1cccc([N+](=O)[O-])c1)C(=O)C(C(=O)c1ccccc1-c1ccccc1)C1OC(=O)c2ccccc21 (stereo unspecified) | – | – | – | 67.6 µM | – | 38.3 µM | – | 60.2 µM | – | 30.1 µM | – | 44.2 µM | – | 28.5 µM | – | 88 µM | – | 26.6 µM | 34.5 µM | –
O=c1[nH]c(=O)n([C@@H]2C[C@H](CO)[C@H](O)C2)cc1/C=C/Br | – | > 100 µM | – | > 100 µM | – | > 100 µM | – | > 100 µM | – | > 100 µM | – | > 100 µM | – | – | – | > 100 µM | – | > 100 µM | > 100 µM | –
